Columns and labels:
[1] = molecular target: 5-hydroxytryptamine receptor 7 (Homo sapiens, UniProt P34969); assay: Binding affinity to human recombinant 5-hydroxytryptamine 7 receptor in mammalian cells using [3H]5-CT as radioligand; format: cell-based
[2] = molecular target: Serotonin 2 (5-HT2) receptor (Rattus norvegicus, UniProt P30994+P08909+P14842); assay: In vitro binding affinity to 5-hydroxytryptamine 2 receptor of rat cerebral cortex membranes using [3H]ketanserin as the radioligand; format: tissue-based, Membrane
[3] = molecular target: T1, Serotonin 3 receptor (5HT3) (Mus musculus, UniProt Q9JHJ5+P23979); assay: In vitro binding affinity at 5-hydroxytryptamine 3 receptor in N1E-115 cells using 3[H]GR-65630 as the radioligand; format: cell-based
T1 sequence (Q9JHJ5 whole entry): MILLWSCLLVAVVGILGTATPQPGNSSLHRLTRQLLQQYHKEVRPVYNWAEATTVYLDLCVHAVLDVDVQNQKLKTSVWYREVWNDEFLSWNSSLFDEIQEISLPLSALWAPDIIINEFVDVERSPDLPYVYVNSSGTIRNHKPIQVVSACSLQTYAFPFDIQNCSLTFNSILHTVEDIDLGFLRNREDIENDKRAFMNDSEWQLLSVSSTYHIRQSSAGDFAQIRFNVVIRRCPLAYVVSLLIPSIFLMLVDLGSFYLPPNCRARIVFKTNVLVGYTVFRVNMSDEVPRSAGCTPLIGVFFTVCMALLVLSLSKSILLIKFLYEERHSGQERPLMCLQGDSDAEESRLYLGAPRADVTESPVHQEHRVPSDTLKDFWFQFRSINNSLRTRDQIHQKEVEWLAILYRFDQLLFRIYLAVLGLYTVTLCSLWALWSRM
T1 sequence (P23979 whole entry): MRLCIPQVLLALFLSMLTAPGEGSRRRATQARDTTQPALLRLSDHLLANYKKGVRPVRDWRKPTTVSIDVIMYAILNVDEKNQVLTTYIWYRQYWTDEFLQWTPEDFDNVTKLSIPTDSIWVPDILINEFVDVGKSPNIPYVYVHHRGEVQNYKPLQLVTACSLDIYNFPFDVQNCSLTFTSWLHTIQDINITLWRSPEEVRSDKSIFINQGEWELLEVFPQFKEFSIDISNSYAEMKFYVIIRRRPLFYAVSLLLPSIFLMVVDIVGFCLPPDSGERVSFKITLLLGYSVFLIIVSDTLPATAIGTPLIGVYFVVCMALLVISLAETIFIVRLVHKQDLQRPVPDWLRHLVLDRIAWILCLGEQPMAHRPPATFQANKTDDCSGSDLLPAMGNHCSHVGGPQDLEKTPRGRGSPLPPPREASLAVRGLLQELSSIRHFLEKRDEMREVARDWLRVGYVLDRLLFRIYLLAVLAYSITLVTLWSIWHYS

[4] = molecular target: T2, 5-hydroxytryptamine receptor 1A (Homo sapiens, UniProt P08908); assay: In vitro binding affinity at human recombinant 5-hydroxytryptamine 1A receptor in mammalian cells using 3[H]8-OH-DPAT as the radioligand; format: cell-based
T2 sequence (P08908 whole entry): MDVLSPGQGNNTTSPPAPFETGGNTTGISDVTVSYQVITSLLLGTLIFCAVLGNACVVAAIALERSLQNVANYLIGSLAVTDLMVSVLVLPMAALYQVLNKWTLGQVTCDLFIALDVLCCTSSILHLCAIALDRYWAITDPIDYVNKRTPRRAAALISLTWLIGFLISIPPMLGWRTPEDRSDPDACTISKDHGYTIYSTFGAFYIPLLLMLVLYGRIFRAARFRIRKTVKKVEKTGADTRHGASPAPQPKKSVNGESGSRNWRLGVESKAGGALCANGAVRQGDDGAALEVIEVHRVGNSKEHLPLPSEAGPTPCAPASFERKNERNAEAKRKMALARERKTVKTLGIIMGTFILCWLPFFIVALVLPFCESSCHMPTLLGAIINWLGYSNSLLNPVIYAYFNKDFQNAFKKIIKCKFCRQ

[5] = molecular target: 5-hydroxytryptamine receptor 6 (Homo sapiens, UniProt P50406); assay: In vitro binding affinity at human recombinant 5-hydroxytryptamine 6 receptor in mammalian cells using 3[H]LSD as the radioligand; format: cell-based
[6] = molecular target: 5-hydroxytryptamine receptor 1B (Rattus norvegicus, UniProt P28564); assay: In vitro binding affinity at 5-hydroxytryptamine 1B receptor in rat striatal […] using [125I](-)-iodocyanopindolol as the radioligand
[7] = molecular target: 5-hydroxytryptamine receptor 4 (Cavia porcellus, UniProt O70528); assay: In vitro binding affinity at 5-hydroxytryptamine 4 receptor in guinea pig striatum using 3[H]GR-113808 as the radioligand; format: tissue-based
5-hydroxytryptamine receptor 4, sequence (O70528 whole entry): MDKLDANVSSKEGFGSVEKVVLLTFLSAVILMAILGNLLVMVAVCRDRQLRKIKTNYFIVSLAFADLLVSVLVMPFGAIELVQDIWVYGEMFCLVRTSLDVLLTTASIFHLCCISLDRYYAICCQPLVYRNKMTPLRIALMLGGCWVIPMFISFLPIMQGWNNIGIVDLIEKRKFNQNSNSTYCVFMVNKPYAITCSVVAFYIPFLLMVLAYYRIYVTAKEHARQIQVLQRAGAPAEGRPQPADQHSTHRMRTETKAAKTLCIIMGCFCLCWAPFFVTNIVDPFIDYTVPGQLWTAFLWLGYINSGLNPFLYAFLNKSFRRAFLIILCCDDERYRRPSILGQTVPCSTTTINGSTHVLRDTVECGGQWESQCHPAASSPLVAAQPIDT

5-hydroxytryptamine receptor 7, sequence (P34969 whole entry): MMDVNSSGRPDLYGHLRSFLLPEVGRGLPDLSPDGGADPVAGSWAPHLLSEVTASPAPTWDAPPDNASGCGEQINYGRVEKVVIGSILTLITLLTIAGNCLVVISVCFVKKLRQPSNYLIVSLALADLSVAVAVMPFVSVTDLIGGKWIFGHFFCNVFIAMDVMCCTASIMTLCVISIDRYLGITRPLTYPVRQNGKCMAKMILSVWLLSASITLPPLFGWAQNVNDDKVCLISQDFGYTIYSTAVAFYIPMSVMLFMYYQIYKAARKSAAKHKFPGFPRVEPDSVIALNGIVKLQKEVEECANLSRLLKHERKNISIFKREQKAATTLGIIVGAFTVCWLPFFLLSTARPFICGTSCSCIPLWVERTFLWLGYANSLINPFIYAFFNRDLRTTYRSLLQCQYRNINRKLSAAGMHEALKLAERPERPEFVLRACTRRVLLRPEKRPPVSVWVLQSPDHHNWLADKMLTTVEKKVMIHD
5-hydroxytryptamine receptor 6, sequence (P50406 whole entry): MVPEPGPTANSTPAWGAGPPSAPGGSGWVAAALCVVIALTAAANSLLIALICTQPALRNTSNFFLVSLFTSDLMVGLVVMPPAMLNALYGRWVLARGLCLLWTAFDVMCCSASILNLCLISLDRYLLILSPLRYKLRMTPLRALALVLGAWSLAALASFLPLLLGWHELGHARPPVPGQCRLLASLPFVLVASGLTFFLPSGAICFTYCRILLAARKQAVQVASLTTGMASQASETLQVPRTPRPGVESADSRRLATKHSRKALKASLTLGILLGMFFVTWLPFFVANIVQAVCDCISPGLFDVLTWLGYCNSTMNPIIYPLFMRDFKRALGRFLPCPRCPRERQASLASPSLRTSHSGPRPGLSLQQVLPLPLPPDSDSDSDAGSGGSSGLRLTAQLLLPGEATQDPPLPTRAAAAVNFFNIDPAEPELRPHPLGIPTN
5-hydroxytryptamine receptor 1B, sequence (P28564 whole entry): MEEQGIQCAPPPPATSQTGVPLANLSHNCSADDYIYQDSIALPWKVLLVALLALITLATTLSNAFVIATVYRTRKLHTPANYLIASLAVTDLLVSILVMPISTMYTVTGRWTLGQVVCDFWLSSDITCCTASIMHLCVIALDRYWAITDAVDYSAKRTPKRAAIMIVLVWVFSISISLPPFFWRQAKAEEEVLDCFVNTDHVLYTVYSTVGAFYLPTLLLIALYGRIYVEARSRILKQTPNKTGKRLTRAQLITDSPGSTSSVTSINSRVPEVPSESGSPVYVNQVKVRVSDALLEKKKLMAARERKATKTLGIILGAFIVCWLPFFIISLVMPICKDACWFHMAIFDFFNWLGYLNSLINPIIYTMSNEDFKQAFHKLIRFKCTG

| Structure (SMILES) | Ki [1] | Log Ki [2] | further results |
| --- | --- | --- | --- |
| CN1C(=O)C2(CCCCN3CC=C(c4ccccc4)CC3)CCCc3cccc1c32 (stereo not drawn) | 25.1 nM | -6.88 |  |
| O=C1Nc2cccc3c2C1(CCCCN1CCN(C2CCCCC2)CC1)CCC3 (stereo not drawn) |  | < -6 |  |
| O=C1Nc2ccc(Br)c3c2C1(CCCCN1CC=C(c2ccccc2)CC1)CCC3 (stereo not drawn) | 12.3 nM | -6.54 |  |
| O=C1Nc2ccc(O)c3c2C1(CCCCN1CC=C(c2ccccc2)CC1)CCC3 (stereo not drawn) | 8.13 nM | -7.4 |  |
| CN(C)C(=O)n1c2c(c3ccccc31)CCN(CCCCC13CCCc4cccc(c41)NC3=O)C2 (stereo not drawn) | 7.08 nM | -6.12 |  |
| O=C1Nc2cccc3c2C1(CCCCN1CCN(c2ccccc2C(F)(F)F)CC1)CCC3 (stereo not drawn) | 74.1 nM | -5.86 |  |
| COC1(c2ccccc2)CCN(CCCCC23CCCc4cccc(c42)NC3=O)CC1 (stereo not drawn) | 21.9 nM | -6.43 |  |
| Cn1c2c(c3ccccc31)CCN(CCCCC13CCCc4cccc(c41)NC3=O)C2 (stereo not drawn) | 19.1 nM | -6.28 |  |
| COc1ccc2[nH]c3c(c2c1)CCN(CCCCC12CCCc4cccc(c41)NC2=O)C3 (stereo not drawn) | 29.5 nM | -6.17 |  |
| O=C1Nc2cccc3c2C1(CCCCN1CCN(c2ccccc2[N+](=O)[O-])CC1)CCC3 (stereo not drawn) | 24 nM | -7.34 |  |
| COCn1c2c(c3ccccc31)CCN(CCCCC13CCCc4cccc(c41)NC3=O)C2 (stereo not drawn) | 17 nM | -6.24 |  |
| NC(=O)Cn1c2c(c3ccccc31)CCN(CCCCC13CCCc4cccc(c41)NC3=O)C2 (stereo not drawn) | 8.71 nM | -6.09 |  |
| CNC(=O)Cn1c2c(c3ccccc31)CCN(CCCCC13CCCc4cccc(c41)NC3=O)C2 (stereo not drawn) | 3.55 nM | < -6 | Log Ki [3]: > -6; Ki [4]: 129 nM; Ki [5]: > 1000 nM; Ki [6]: > 1000 nM; Ki [7]: 490 nM |
| NCCc1c[nH]c2ccc(C(N)=O)cc12 |  | < -6 |  |
| O=C1Nc2cccc3c2C1(CCCCN1CCN(c2ncccn2)CC1)CCC3 (stereo not drawn) | 45.7 nM | -6.91 |  |
| NC(=O)c1ccccc1N1CCN(CCCCC23CCCc4cccc(c42)NC3=O)CC1 (stereo not drawn) | 17.4 nM | -6.05 |  |
| NC(=O)C1(c2ccccc2)CCN(CCCCC23CCCc4cccc(c42)NC3=O)CC1 (stereo not drawn) | 224 nM | -7.8 |  |
| COc1cccc(N2CCN(CCCCC34CCCc5cccc(c53)NC4=O)CC2)c1 (stereo not drawn) | 2.34 nM | -7.19 |  |

| Structure (SMILES) | Ki [1] | Log Ki [2] | further results |
| --- | --- | --- | --- |
| Cc1cccc(C)c1N1CCN(CCCCC23CCCc4cccc(c42)NC3=O)CC1 (stereo not drawn) | 148 nM | -5.85 |  |
| O=C1Nc2cccc3c2C1(CCCCN1CCN(c2ccccc2Cl)CC1)CCC3 (stereo not drawn) | 12.3 nM | -7.01 |  |
| CC(=O)C1(c2ccccc2)CCN(CCCCC23CCCc4cccc(c42)NC3=O)CC1 (stereo not drawn) | 72.4 nM | -7.01 |  |
| O=C1Nc2cccc3c2C1(CCCCN1CC=C(c2ccc(F)cc2)CC1)CCC3 (stereo not drawn) | 3.55 nM | -7.1 |  |
| NC(=O)c1ccc2c3c1CCCC3(CCCCN1CC=C(c3ccccc3)CC1)C(=O)N2 (stereo not drawn) | 417 nM | -6.8 |  |
| CC(=O)c1ccccc1N1CCN(CCCCC23CCCc4cccc(c42)NC3=O)CC1 (stereo not drawn) | 7.94 nM | -6.45 |  |
| O=C1Nc2cccc3c2C1(CCCCN1CCC(O)(c2ccccc2)CC1)CCC3 (stereo not drawn) | 43.7 nM | -6.35 |  |
| COc1ccc(N2CCN(CCCCC34CCCc5cccc(c53)NC4=O)CC2)cc1 (stereo not drawn) | 20.4 nM | -6.69 |  |
| CN(C)C(=O)Cn1c2c(c3ccccc31)CCN(CCCCC13CCCc4cccc(c41)NC3=O)C2 (stereo not drawn) | 19.1 nM | < -6 |  |
| CC(=O)c1ccc2c3c1CCCC3(CCCCN1CC=C(c3ccccc3)CC1)C(=O)N2 (stereo not drawn) | 97.7 nM | -7.12 |  |
| CC(=O)n1c2c(c3ccccc31)CCN(CCCCC13CCCc4cccc(c41)NC3=O)C2 (stereo not drawn) | 6.46 nM | -6.27 |  |
| Cc1ccc(C2=CCN(CCCCC34CCCc5cccc(c53)NC4=O)CC2)cc1 (stereo not drawn) | 4.79 nM | -6.94 |  |
| Cc1ccccc1N1CCN(CCCCC23CCCc4cccc(c42)NC3=O)CC1 (stereo not drawn) | 10.5 nM | -7.35 |  |
| COc1ccc2c3c1CCCC3(CCCCN1CC=C(c3ccccc3)CC1)C(=O)N2 (stereo not drawn) | 110 nM | -7.55 |  |
| C=CCn1c2c(c3ccccc31)CCN(CCCCC13CCCc4cccc(c41)NC3=O)C2 (stereo not drawn) | 6.03 nM | -6.55 |  |
| O=C1Nc2cccc3c2C1(CCCCN1CCc2c([nH]c4ccccc24)C1)CCC3 (stereo not drawn) | 5.75 nM | -6.62 |  |
| O=C1Nc2cccc3c2C1(CCCCN1CCC(c2ccccc2)CC1)CCC3 (stereo not drawn) | 3.98 nM | -6.84 |  |

From ChEMBL document CHEMBL1136048, “2a-[4-(Tetrahydropyridoindol-2-yl)butyl]tetrahydrobenzindole derivatives: new selective antagonists of the 5-hydroxytryptamine7 receptor” (J Med Chem, 2002)
